In data set [1] the target is T1, Adenosine A2a receptor (Homo sapiens, UniProt P29274).
T1 construct: expressed in transfected cells; host or cells: CHO (Chinese hamster ovary) cells, stably double-transfected
Put plainly: FLIPR intracellular Ca2+ functional assay, recombinant CHO cells (A2a/Gα16). The data set is classed as cell-based. The procedure: (§1) In Vitro Functional Assays with Recombinant Cell Lines:
(§2) Functional assays were performed by detection of agonist-induced changes in the intracellular concentration of Ca^2+ in recombinant cell lines expressing adenosine receptor subtypes using the FLIPR™ (fluorescence imaging plate reader, Molecular Devices) technology. To allow optimal signalling through Ca^2+, chinese hamster ovary (CHO) cells were stably double-transfected with cDNAs to achieve expression of suitable combinations of adenosine receptor subtypes (A1, A2a, A2b or A3) with either G-protein Gα16 or hybrid protein Gα6qi4myr (German Patent Application no. 100333532.2). Optimal signals were achieved using combinations as follows:
(§3) For assays, recombinant cells were seeded in 96-well dishes (50000 cells/well) and grown overnight. Medium was then removed and cells incubated for 1 hour in buffer containing the dye Fluo-4. After incubation with dye, cells were washed, test compound added and changes in intracellular Ca^2+ concentration measured by FLIPR. Measured values were expressed as % change relative to controls (0%: no test compound added; 100%: 1 μM Adenosine added) and used for calculation of dose-response curves and subsequent determination of EC50 values.

Data set [2] relates to isolated guinea pig atrium. Put plainly: Effect on the isolated guinea pig atrium (contractile force, heart rate). The procedure: D. Effect on the Isolated Guinea Pig Atrium:
Guinea pigs of either sex were killed by a blow on the back of the neck and exsanguinated.
Their heart was taken out and the atria removed. The preparation (atrium) was immediately transferred to Ringer solution (JT 431) which was at a temperature of 32° C. and was bubbled with a mixture of 95% O2 and 5% CO2. The composition of the solution in […] was: NaCl 9.0; KCl 0.42 CaCl2 0.24; NaHCO3 0.2; glucose 1.0. The atrium beats spontaneously with an initial tension of 500 mg. The contractile force and the heart rate was recorded with a computer program and automatically calculated (B-mon and A-mon PC programs. Fa. Jäckel. Hanau. GERMANY). After equilibration, the test compound was added to a final bath concentration. N was 4-6 per concentration.

The target in data set [3] is T2, Adenosine A1 receptor (Homo sapiens, UniProt P30542).
T2 construct: expressed in transfected cells; host or cells: CHO (Chinese hamster ovary) cells, stably double-transfected
T2 sequence (P30542 1-326): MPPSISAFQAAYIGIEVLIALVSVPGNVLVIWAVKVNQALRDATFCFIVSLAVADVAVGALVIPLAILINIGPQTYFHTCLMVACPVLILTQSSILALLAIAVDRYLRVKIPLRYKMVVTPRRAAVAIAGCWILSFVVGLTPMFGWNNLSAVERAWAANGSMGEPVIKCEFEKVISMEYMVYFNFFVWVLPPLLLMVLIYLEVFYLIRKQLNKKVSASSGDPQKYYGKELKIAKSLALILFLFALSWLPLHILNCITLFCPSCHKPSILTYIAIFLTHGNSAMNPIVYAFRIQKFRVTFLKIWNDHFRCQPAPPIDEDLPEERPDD
Briefly: FLIPR intracellular Ca2+ functional assay, recombinant CHO cells (A1/Gα6qi4myr). The data set is classed as cell-based. To be noted: read-out: EC50 values (agonist activity at adenosine receptors) A1. As for the experimental part: as §1, §2, §3

Data set [4] deals with T3, Adenosine A3 receptor (Homo sapiens, UniProt P0DMS8).
T3 construct: expressed in transfected cells; host or cells: CHO (Chinese hamster ovary) cells, stably double-transfected
T3 sequence (P0DMS8 1-318): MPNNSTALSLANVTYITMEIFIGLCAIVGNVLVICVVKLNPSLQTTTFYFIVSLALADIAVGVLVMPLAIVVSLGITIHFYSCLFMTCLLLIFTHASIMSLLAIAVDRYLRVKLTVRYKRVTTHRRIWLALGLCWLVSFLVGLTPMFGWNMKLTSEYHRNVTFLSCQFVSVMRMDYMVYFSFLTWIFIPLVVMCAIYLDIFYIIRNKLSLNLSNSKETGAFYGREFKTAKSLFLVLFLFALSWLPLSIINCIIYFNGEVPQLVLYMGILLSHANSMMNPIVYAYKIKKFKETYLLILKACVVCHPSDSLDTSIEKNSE
Briefly: FLIPR intracellular Ca2+ functional assay, recombinant CHO cells (A3/Gα6qi4myr). To be noted: for pEC50: read-out: EC50 values (agonist activity at adenosine receptors) A3. The data set is classed as cell-based. As for the experimental part:
as §1, §2, §3

The target in data set [5] is T4, Adenosine A2b receptor (Homo sapiens, UniProt P29275).
T4 construct: expressed in transfected cells; host or cells: CHO (Chinese hamster ovary) cells, stably double-transfected
T4 sequence (P29275 1-332): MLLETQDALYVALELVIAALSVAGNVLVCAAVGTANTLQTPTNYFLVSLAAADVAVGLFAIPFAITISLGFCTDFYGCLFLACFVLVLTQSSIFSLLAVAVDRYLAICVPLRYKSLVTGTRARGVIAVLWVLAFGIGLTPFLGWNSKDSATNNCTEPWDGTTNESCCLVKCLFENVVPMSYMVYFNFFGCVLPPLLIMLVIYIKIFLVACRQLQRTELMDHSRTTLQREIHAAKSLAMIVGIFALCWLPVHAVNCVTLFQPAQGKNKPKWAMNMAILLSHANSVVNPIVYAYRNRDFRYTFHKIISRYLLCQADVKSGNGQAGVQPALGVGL
Put plainly: FLIPR intracellular Ca2+ functional assay, recombinant CHO cells (A2b/Gα16). The data set is classed as cell-based. To be noted: for pEC50: read-out: EC50 values (agonist activity at adenosine receptors) A2B. As for the experimental part:
as §1, §2, §3

For data set [6], the system named is isolated rat adipocytes. Put plainly: Antilipolytic effect in isolated rat adipocytes. The data set is classed as cell-based. To be noted: Adipocyte, adenosine deaminase-induced lipolysis (glycerol and free fatty acid release). The procedure:
E. Antilipolytic Effect in Isolated Rat Adipocytes:
For the preparation of isolated rat adipocytes, epididymal fat pads were obtained from male Sprague-Dawley rats (150-180 g) killed by decapitation. The main fat pad blood vessel was removed with forceps and the pads were cut into small pieces. Digestion was carried out at 37° C. in a shaking water bath by treating 1 g of sliced pad for 20 min with 3 ml of 1 mg/ml collagenase (type I, CLS, Worthington) in 1% BSA, fraction V, in KRH (Krebs-Ringer solution buffered with 25 mM HEPES/KOH, pH 7.4, containing 2.5 mM CaCl2, 2 mM glucose, 1 mM sodium pyruvate, 0.5 units/ml adenosin deaminase and 200 nM phenylisopropyl adenosine). The adipocytes were filtered through nylon mesh of sufficient pore size that no pressure other than gentle teasing with a plastic spatula was necessary for the cells to pass through. After three cycles of centrifugation (500 g, 1 min), aspiration of the infranatant. and resuspension in KRH containing 1% BSA, the cells were suspended in KRH containing 4% defatted BSA. Small aliquots of the final suspension were aspirated into capillary hematocrit tubes and centrifuged for 1 min in a Microhematocrit centrifuge in order to determine what fraction of the suspension consisted of fat cells. Results expressed as activities per unit volume of packed adipocytes (corresponding to equivalent numbers of cells) are based on this centrifugation procedure. Lipolysis was initiated by addition of a 100 μl aliquot of the adipocyte suspension to 700 μl of incubation medium [prewarmed to 37° C. and consisting of KRH, 4% defatted BSA and 1 U/ml adenosine deaminase (type I, Sigma)], with or without addition of 8 μl of a solution of the appropriate test substance in 100% DMSO (at a concentration corresponding to 100 times its concentration in the final mixture). […] Incubations were performed in 5 ml polypropylene vials agitated in a shaking water bath (140 cycles/min, amplitude 4.5 cm) at 37° C. for 20, 40, and 60 min. The incubation was terminated by addition of 200 μl of 50 mM EDTA buffered to pH 7.4 with Tris. For the glycerol determination, the whole mixture was mixed rapidly and homogenized with a ground glass pestle in a 1 ml ground glass homogenizing tube (10 pulses). The homogenate was transferred immediately to a 1.5 ml Eppendorf cup precooled to 4° C., after which the extracts were maintained at 4° C. The homogenate was then centrifuged (10,000 g, 15 min) and the infranatant below the fat cake removed with a glass Pasteur pipette. taking care not to aspirate the membrane pellet. and transferred to another Eppendorf cup. 300 μl aliquots of the infranatant were added to 300 μl volumes of 10% (w/v) HClO4. The precipitate was in each case removed by centrifugation (10,000 g, 2 min) and the supernatant neutralized with 20% (w/v) KOH, followed by addition of 50 μl of 1 M Tris/HCl, pH 7.4, A 50 μl sample was then incubated (5 min, 37° C.) with 1 ml of 0.1 M HEPES/KOH, pH 7.5, containing 2 mM ATP, 0.5 mM 4-aminoantipyrine, 1 mM EDTA, 0.5 U glycerol kinase, 4 U glycerol-3-phosphate oxidase, 2 U peroxidase, 2.7 mM p-chlorophenol, 0.04% Triton X-100 and 2 mM MgSO4.7H2O, and the glycerol content determined from the absorbance at 505 nm. For the determination of free fatty acids, 300 μl aliquots of the incubation mixture were added to 3 ml of chloroform/heptane (1:1 v/v) containing 2% (v/v) methanol. and the liberated free fatty acids determined with copper reagent and bathocuproine. The inhibitory activities of the cyclipostins were calculated from the combined results (glycerol and free fatty acid release) by plotting the log of the dose against the percent response (with the adenosine deaminase-induced lipolysis set at 100%). Data in the linear portion of the log (dose)-percent response curves were analyzed using parallel-line bioassay techniques.

pEC50, pIC50: −log10 of the molar value.

T1 sequence (P29274 whole entry): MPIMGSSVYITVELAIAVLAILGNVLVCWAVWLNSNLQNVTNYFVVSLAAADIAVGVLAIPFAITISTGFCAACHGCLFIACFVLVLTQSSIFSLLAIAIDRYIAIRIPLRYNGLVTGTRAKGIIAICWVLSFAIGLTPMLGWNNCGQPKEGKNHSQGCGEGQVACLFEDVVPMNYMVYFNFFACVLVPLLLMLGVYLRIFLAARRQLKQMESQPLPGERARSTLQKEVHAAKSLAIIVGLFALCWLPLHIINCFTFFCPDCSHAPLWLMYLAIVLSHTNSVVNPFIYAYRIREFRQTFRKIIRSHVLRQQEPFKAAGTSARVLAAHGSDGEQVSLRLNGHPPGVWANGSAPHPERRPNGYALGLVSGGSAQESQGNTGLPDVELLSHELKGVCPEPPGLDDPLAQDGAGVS

Take `O[C@@H]1[C@@H](CF)C[C@@H](n2cnc3c(N[C@H]4CCN(c5cccc(Cl)c5)C4)ncnc32)[C@@H]1O` [Example 1, (1R,2S,3R,5S)-3-{6-[1-(3-chloro-phenyl-1-yl)-pyrrolidin-3(S)-ylamino]-purin-9-yl}-5-fluoromethyl-cyclopentane-1,2-diol]: the “EC50 values (agonist activity at adenosine receptors) A2A” value in data set [1] is “inactive”. In addition, in data set [2] (at 1–100 μM), the Heart rate result was “no effect at 1–100 μM”. In addition, the pEC50 in data set [3] is 6.82; in data set [4] it was under 4.30; in data set [5], under 4.52. Further, the pIC50 in data set [6] was 8.30.

Take `CC[C@H](Cc1sccc1Cl)Nc1ncnc2c1ncn2[C@@H]1C[C@H](CF)[C@@H](O)[C@H]1O` [Example 2, (1R,2S,3R,5S)-3-{6-[(R)-1-(3-chloro-thiophen-2-ylmethyl) -propylamino]-purin-9-yl}-5-fluoromethyl-cyclopentane-1,2-diol]: the “EC50 values (agonist activity at adenosine receptors) A2A” value in data set [1] was “inactive”. For the same compound, in data set [2] (at 10 μM), the Contractile force is −4% at 10 μM. The Heart rate in data set [2] (at 10 μM) is on record as −4% at 10 μM. Also, the pEC50 was 7.70 in data set [3], under 4.40 in data set [4] and 5.47 in data set [5]. In data set [6], this compound showed a pIC50 of 7.70.

As to `O[C@@H]1[C@@H](COC(F)(F)F)C[C@@H](n2cnc3c(N[C@H]4CCN(c5cccc(Cl)c5)C4)ncnc32)[C@@H]1O` [Example 3, (1R,2S,3R,5R)-3-{6-[1-(3-chloro-phenyl-1-yl)-pyrrolidin-3(S)-ylamino]-purin-9-yl}-5-trifluoromethoxymethyl-cyclopentane-1,2-diol], the pEC50 in data set [1] (read-out: EC50 values (agonist activity at adenosine receptors) A2A) was under 4.52; in data set [3], 5.43. In addition, the “EC50 values (agonist activity at adenosine receptors) A3” value in data set [4] is “inactive”. In addition, the “EC50 values (agonist activity at adenosine receptors) A2B” value in data set [5] is “inactive”.

As to `O[C@@H]1[C@@H](CF)C[C@@H](n2cnc3c(N[C@H]4CCN(c5ccc(C(F)(F)F)cn5)C4)ncnc32)[C@@H]1O` [Example 4, (1R,2S,3R,5S)-3-{6-[1-(5-trifluoromethyl-pyridin-2-yl)-pyrrolidin-3(S)-ylamino]-purin-9-yl}-5-fluoromethyl-cyclopentane-1,2-diol], the “EC50 values (agonist activity at adenosine receptors) A2A” value in data set [1] was “Inactive”. The Contractile force in data set [2] (at 10 μM) is on record as −7% at 10 μM. For the same compound, the Heart rate entry in data set [2] (at 1–100 μM) was “no effect at 1–100 μM”. Also, the pEC50 in data set [3] is 5.79; in data set [4] it was under 4.30; in data set [5], under 4.52. The compound also gave a pIC50 in data set [6] of 7.00.

For the compound `O[C@@H]1[C@@H](CF)C[C@@H](n2cnc3c(N[C@H]4CCN(c5ccc(Cl)cn5)C4)ncnc32)[C@@H]1O` [Example 6, (1R,2S,3R,5S)-3-{6-[1-(5-chloro-pyridin-2-yl)-pyrrolidin-3(S) -ylamino]-purin-9-yl}-5-fluoromethyl-cyclopentane-1,2-diol], in data set [1], the “EC50 values (agonist activity at adenosine receptors) A2A” value was “Inactive”. Besides, the Contractile force in data set [2] (at 30 μM) is given as −3% at 30 μM. Besides, the Heart rate entry in data set [2] (at 1–100 μM) was “no effect at 1–100 μM”. The results for the negative-log EC50 (pEC50) in data set [3] and in data set [5] were 5.90 and under 4.52, respectively. Moreover, the “EC50 values (agonist activity at adenosine receptors) A3” value in data set [4] was “inactive”. Further, the pIC50 in data set [6] is 8.00.

As to `O[C@@H]1[C@@H](COC(F)(F)F)C[C@@H](n2cnc3c(N[C@H]4CCN(c5ccc(C(F)(F)F)cn5)C4)ncnc32)[C@@H]1O` [Example 8, (1R,2S,3R,5R)-3-{6-[1-(5-trifluoromethyl-pyridin-2-yl)-pyrrolidin-3(s)-ylamino]-purin-9-yl}-5-trifluoromethoxymethyl-cyclopentane-1,2-diol], the melting point was 142 °C.

`O[C@@H]1[C@@H](COC(F)(F)F)C[C@@H](n2cnc3c(N[C@H]4CCN(c5ccc(Cl)cn5)C4)ncnc32)[C@@H]1O` [Example 9, (1R,2S,3R,5R)-3-{6-[1-(5-chloro-pyridin-2-yl)-pyrrolidin-3(S) -ylamino]-purin-9-yl}-5-trifluoromethoxymethyl-cyclopentane-1,2-diol] gave a melting point of 130 °C.

`CC[C@H](Cc1sccc1Cl)Nc1ncnc2c1ncn2[C@@H]1C[C@H](COC(F)(F)F)[C@@H](O)[C@H]1O` [Example 11, (1R,2S, 3R, 5R)-3-{6-[(R)-1-(3-chloro-thiophen-2-ylmethyl) -propylamino]-purin-9-yl}-5-trifluoromethoxymethyl-cyclopentane-1,2-diol]: the melting point came out at 140 °C.

The values are drawn from US7265111B2, “Adenosine analogues and their use as pharmaceutical agents” (Sanofi-Aventis Deutschland GmbH, priority 2002, dated 2007).
